According to BindingDB's records for doi:10.1021/jm0504499 (Universit&#224, 2005):

How the values were obtained:
[1] = biological target: Metabotropic glutamate receptor 2 (Rattus norvegicus) (UniProt P31421); assay: Effective concentration against mGluR2 receptor expressed in CHO cells
[2] = biological target: Metabotropic glutamate receptor 2 (Rattus norvegicus) (UniProt P31421); assay: Binding affinity for mGluR2 receptor expressed in CHO cells

Sequence of Metabotropic glutamate receptor 2 (Rattus norvegicus) (P31421 whole entry, looked up): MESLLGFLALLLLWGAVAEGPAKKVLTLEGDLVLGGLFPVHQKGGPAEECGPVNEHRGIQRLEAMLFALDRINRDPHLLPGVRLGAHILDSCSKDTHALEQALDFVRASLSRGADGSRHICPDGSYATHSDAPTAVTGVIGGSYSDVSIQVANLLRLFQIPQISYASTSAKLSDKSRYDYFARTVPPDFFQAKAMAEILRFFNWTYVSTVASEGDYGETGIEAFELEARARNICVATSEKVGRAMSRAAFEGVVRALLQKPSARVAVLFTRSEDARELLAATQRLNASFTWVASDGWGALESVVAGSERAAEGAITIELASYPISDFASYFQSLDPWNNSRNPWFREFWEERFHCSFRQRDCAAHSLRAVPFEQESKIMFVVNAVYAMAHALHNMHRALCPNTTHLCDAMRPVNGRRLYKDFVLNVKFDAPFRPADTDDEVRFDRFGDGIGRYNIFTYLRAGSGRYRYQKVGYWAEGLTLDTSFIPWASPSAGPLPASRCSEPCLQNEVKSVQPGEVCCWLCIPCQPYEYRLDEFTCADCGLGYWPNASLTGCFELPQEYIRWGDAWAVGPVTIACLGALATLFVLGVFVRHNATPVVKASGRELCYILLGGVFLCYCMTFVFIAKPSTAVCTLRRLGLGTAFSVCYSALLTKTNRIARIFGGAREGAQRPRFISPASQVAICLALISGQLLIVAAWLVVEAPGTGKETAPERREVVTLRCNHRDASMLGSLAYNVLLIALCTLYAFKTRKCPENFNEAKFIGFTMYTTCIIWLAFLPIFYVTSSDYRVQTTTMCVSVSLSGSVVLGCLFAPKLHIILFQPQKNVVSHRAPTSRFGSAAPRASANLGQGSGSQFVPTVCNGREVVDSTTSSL

EC50 [1]: > 1000 µM | Ki [2]: > 1000 µM
Structure (SMILES): N[C@@H](C[C@H]1CC(C(=O)O)=NO1)C(=O)O [5-(2-Amino-2-carboxy-ethyl)-4,5-dihydro-isoxazole-3-carboxylic acid]
